The source made the active and inactive calls. The calls are words filed in the database; no cut-off is given here.
Columns and labels:
MRC5 = assay: Cytotoxicity against human MRC5 cells after 72 hrs by Alamar blue staining; assay type: cell-based; conditions: mrc5, 72 h
[1] = target: T1, ATP-dependent 6-phosphofructokinase (Trypanosoma brucei) (UniProt O15648); assay: Ratio of Ki/Km for Trypanosoma brucei PFK expressed in Escherichia coli using fructose-6-phosphate by spectrophotometry analysis
T1 sequence (whole entry): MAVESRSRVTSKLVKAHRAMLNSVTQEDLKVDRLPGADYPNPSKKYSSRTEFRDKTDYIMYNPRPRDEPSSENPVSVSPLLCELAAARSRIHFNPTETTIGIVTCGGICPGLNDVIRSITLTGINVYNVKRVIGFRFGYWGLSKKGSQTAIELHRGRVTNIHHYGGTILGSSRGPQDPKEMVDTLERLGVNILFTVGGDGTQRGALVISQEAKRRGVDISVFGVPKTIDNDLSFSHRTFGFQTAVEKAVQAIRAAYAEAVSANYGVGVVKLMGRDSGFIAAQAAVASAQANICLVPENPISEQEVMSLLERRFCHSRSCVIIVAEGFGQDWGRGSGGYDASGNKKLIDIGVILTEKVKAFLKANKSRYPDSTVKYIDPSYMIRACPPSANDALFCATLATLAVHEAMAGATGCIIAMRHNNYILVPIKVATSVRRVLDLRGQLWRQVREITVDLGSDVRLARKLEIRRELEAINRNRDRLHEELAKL

[2] = test system: Trypanosoma brucei brucei; assay: Antitrypanosomal activity against Trypanosoma brucei brucei 427 bloodstream form after 72 hrs by LILIT method; assay type: functional; conditions: for EC50: Trypanosoma brucei, 427, 72 h, read-out: ED50 (the source's name)
[3] = target: T1, ATP-dependent 6-phosphofructokinase (Trypanosoma brucei); assay: Inhibition of Trypanosoma brucei PFK expressed in Escherichia coli at 690 uM
[4] = target: Glyceraldehyde-3-phosphate dehydrogenase (Oryctolagus cuniculus) (UniProt P46406); assay: Inhibition of rabbit muscle GAPDH at 69 uM
Glyceraldehyde-3-phosphate dehydrogenase (Oryctolagus cuniculus), sequence (P46406 whole entry, looked up): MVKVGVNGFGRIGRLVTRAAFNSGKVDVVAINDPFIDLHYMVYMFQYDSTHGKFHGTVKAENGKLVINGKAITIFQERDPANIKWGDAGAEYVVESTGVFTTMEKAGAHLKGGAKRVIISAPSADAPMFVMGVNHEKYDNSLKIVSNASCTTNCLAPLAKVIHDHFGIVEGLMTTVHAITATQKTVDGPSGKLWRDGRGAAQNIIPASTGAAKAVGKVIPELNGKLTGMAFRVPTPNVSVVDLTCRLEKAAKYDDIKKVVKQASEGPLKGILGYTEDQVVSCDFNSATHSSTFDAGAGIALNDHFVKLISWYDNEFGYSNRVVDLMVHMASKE

Trypanosoma brucei [5] = assay: Inhibition of Trypanosoma brucei aldolase expressed in Escherichia coli at 140 uM
Trypanosoma brucei [6] = assay: Inhibition of Trypanosoma brucei GAPDH expressed in Escherichia coli at 278 uM
[7] = target: T2, ATP-dependent 6-phosphofructokinase, muscle type (Oryctolagus cuniculus) (UniProt P00511); assay: Inhibition of rabbit muscle PFK at 690 uM
T2 sequence (whole entry): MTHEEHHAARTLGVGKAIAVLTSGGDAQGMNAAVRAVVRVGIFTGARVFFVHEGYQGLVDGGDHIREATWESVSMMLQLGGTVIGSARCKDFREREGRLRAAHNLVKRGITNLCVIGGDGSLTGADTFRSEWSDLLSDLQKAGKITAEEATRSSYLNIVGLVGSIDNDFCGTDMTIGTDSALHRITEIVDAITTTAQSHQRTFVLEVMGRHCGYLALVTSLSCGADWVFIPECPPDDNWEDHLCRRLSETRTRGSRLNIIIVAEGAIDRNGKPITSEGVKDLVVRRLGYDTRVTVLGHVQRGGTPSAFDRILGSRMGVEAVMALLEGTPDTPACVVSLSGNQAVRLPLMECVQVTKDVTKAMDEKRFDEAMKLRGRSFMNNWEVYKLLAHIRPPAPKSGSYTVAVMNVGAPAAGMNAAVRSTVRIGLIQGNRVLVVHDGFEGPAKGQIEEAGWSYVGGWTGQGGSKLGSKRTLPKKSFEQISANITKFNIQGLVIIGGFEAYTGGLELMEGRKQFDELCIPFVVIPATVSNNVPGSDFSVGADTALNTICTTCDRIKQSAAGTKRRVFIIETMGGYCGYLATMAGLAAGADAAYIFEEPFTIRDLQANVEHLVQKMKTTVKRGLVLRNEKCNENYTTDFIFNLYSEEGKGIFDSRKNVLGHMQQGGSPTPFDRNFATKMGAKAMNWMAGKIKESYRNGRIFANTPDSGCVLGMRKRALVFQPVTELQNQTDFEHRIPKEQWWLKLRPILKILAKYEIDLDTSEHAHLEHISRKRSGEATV

[8] = target: T3, Fructose-bisphosphate aldolase A (Oryctolagus cuniculus) (UniProt P00883); assay: Inhibition of rabbit muscle aldolase at 280 uM
T3 sequence (whole entry): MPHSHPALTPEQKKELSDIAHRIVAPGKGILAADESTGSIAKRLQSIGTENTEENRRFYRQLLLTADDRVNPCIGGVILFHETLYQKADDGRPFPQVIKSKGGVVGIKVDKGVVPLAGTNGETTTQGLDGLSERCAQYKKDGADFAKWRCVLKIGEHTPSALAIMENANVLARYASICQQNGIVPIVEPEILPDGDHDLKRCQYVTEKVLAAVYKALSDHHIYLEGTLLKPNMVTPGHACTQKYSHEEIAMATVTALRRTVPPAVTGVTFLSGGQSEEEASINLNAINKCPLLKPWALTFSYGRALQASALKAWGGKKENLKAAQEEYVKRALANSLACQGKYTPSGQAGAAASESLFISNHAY

[9] = target: Glyceraldehyde-3-phosphate dehydrogenase (Oryctolagus cuniculus, UniProt P46406); assay: Inhibition of rabbit muscle GAPDH
Glyceraldehyde-3-phosphate dehydrogenase, sequence (P46406 whole entry): as the sequence (P46406 whole entry, looked up) above

[10] = Mixed-type reversible inhibition of Trypanosoma brucei GAPDH expressed in Escherichia coli using NAD+ by spectrophotometry analysis
[11] = target: T2, ATP-dependent 6-phosphofructokinase, muscle type (Oryctolagus cuniculus); assay: Inhibition of rabbit muscle PFK at 500 uM
[12] = Mixed-type reversible inhibition of Trypanosoma brucei GAPDH expressed in Escherichia coli at enzyme substrate complex by spectrophotometry analysis
[13] = target: T4, Fructose-bisphosphate aldolase A (Oryctolagus cuniculus, UniProt P00883); assay: Inhibition of rabbit muscle aldolase
T4 sequence (P00883 whole entry): T3 sequence (whole entry)

[14] = target: T5, ATP-dependent 6-phosphofructokinase (Trypanosoma brucei, UniProt O15648); assay: Inhibition of Trypanosoma brucei PFK expressed in Escherichia coli
T5 sequence (O15648 whole entry): T1 sequence (whole entry)

[15] = Inhibition of Trypanosoma brucei GAPDH expressed in Escherichia coli
[16] = Inhibition of Trypanosoma brucei aldolase expressed in Escherichia coli
[17] = Selectivity ratio of IC50 for rabbit muscle aldolase to IC50 for Trypanosoma brucei aldolase; assay type: tissue-based; conditions: Muscle tissue
[18] = target: T5, ATP-dependent 6-phosphofructokinase; assay: Competitive reversible inhibition of Trypanosoma brucei PFK expressed in Escherichia coli using fructose-6-phosphate by spectrophotometry analysis
Trypanosoma brucei [19] = assay: Inhibition of Trypanosoma brucei aldolase expressed in Escherichia coli at 100 uM
[20] = target: Glyceraldehyde-3-phosphate dehydrogenase (Oryctolagus cuniculus) (UniProt P46406); assay: Inhibition of rabbit muscle GAPDH at 3000 uM
[21] = target: T2, ATP-dependent 6-phosphofructokinase, muscle type (Oryctolagus cuniculus); assay: Inhibition of rabbit muscle PFK at 170 uM
[22] = target: T2, ATP-dependent 6-phosphofructokinase, muscle type (Oryctolagus cuniculus); assay: Inhibition of rabbit muscle PFK at 94 uM

CC1(C)C(=O)CC[C@]2(C)[C@H]3Cc4cc5ccccc5n4[C@]3(C)CC[C@@H]12
Activity (MRC5): Toxic
Ki/Km [1]: 0.05

CC(=O)N1c2ccccc2[C@H]2[C@@H]1C[C@@H]1[C@@]2(C)CC[C@H]2C(C)(C)[C@H](O)CC[C@]12C
Activity (MRC5): Toxic
EC50 [2]: 32 µM
inhibition [3]: 28%
inhibition [4]: 10%
inhibition (Trypanosoma brucei [5]): 11%
inhibition (Trypanosoma brucei [6]): 10%
inhibition [7]: 12%
inhibition [8]: inactive

Nc1nc(N)nc(Nc2ccc([As]3SCC(CO)S3)cc2)n1 (stereo unspecified) [MELARSOPROL]
EC50 [2]: 0.00395 µM

CC1(C)[C@H](O)CC[C@]2(C)[C@@H]3C[C@@H]4Nc5ccccc5[C@@H]4[C@]3(C)CC[C@@H]12 [POLYVEOLINE]
Activity (MRC5): Toxic
IC50 [9]: 620 µM
Ki [10]: 18 µM
EC50 [2]: 54 µM
inhibition [11]: inactive
Ki [12]: 50 µM
IC50 [13]: 270 µM
IC50 [14]: 30 µM
IC50 [15]: 110 µM
IC50 [16]: 80 µM
Ratio IC50 [17]: 3

CC1(C)C(=O)CC[C@@]2(C)[C@H]1CC[C@]1(C)[C@H]2Cc2cc3ccccc3n21 [POLYSIN]
Activity (MRC5): Toxic
Ki/Km [1]: 0.05
Ki [18]: 9 µM

CC1(C)C(=O)CC[C@]2(C)C3Cc4cc5ccccc5n4[C@]3(C)CC[C@@H]12 (stereo partly specified)
EC50 [2]: 18 µM
inhibition (Trypanosoma brucei [19]): 8%
inhibition [20]: inactive
Ki [18]: 10 µM
IC50 [13]: 87 µM
IC50 [14]: 20 µM
inhibition [21]: 18%
IC50 [15]: 1050 µM

CC(=O)O[C@H]1CC[C@]2(C)[C@H]3Cc4cc5ccccc5n4[C@]3(C)CC[C@H]2C1(C)C
Activity (MRC5): Toxic
IC50 [9]: 2050 µM
ED50 [2]: inactive
IC50 [13]: 150 µM
IC50 [14]: 170 µM
IC50 [15]: 110 µM
IC50 [16]: 0.5 µM
inhibition [22]: 16%

— ChEMBL document CHEMBL1158635, “Antitrypanosomal alkaloids from Polyalthia suaveolens (Annonaceae): their effects on three selected glycolytic enzymes of Trypanosoma brucei” (Bioorg Med Chem Lett, 2010)
